Results: ChEMBL document CHEMBL4420078, “Sos1 inhibitors for cancer treatment” (2016)
One block for each compound: values may come before it. The source made the active and inactive calls. The rule behind the calls is not given here.

Tests used:
[1] = molecular target: T1, Son of sevenless homolog 1 (Homo sapiens) (UniProt Q07889); experiment: Inhibition of N-terminal 6x-His-tagged recombinant human SOS1 catalytic domain (residues 564 to 1049 residues) expressed in Escherichia coli BL21 (DE3) assessed as reduction in 50 nM SOS1-mediated GDP/GTP nucleotide exchange upon 2 uM N-terminal-GST-tagged H-Ras (1 to 166 residues) at 10 uM by BODIPY-FL-GDP dissociation assay
T1 sequence (whole entry): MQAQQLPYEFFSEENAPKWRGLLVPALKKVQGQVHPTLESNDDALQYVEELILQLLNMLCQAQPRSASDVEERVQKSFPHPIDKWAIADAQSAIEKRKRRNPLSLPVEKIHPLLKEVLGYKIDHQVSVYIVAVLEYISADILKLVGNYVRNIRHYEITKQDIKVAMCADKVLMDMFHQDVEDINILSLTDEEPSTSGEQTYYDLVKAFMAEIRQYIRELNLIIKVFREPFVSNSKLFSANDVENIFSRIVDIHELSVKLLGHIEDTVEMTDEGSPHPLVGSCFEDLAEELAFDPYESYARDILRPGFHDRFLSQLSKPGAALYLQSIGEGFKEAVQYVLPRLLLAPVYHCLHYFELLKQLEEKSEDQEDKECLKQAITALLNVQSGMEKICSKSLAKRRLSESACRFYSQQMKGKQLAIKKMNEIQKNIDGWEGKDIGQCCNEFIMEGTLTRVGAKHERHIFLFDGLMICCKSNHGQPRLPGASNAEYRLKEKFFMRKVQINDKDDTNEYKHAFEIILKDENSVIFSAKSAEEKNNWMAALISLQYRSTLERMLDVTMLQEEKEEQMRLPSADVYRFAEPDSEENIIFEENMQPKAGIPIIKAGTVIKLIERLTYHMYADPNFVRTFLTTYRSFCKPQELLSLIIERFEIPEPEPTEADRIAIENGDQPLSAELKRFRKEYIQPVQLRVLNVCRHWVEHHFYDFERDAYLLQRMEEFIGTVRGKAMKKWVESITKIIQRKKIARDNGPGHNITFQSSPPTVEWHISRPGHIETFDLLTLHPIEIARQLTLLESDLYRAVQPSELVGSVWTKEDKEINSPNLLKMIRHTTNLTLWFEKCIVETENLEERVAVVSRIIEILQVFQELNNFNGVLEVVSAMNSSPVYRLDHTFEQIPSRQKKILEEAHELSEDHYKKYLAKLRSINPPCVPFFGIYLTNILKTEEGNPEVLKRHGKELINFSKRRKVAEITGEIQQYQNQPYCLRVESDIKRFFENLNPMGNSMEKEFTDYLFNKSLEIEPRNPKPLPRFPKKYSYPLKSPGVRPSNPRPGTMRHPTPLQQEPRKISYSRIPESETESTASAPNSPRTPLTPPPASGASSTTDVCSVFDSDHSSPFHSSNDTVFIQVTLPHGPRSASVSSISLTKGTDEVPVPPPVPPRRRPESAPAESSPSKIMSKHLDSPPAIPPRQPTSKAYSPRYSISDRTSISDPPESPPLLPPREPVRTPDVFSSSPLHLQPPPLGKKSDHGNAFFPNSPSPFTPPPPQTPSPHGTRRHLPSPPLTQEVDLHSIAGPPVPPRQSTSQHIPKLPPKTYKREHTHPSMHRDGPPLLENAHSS

[2] = molecular target: T2, Son of sevenless homolog 1 (Mus musculus) (UniProt Q62245); experiment: Inhibition of SOS1 in overnight serum-starved mouse NIH/3T3 cells assessed as reduction in Akt phosphorylation at 20 to 40 uM pre-incubated for 2 hrs before EGF stimulation for 5 mins by Western blot analysis
T2 sequence (whole entry): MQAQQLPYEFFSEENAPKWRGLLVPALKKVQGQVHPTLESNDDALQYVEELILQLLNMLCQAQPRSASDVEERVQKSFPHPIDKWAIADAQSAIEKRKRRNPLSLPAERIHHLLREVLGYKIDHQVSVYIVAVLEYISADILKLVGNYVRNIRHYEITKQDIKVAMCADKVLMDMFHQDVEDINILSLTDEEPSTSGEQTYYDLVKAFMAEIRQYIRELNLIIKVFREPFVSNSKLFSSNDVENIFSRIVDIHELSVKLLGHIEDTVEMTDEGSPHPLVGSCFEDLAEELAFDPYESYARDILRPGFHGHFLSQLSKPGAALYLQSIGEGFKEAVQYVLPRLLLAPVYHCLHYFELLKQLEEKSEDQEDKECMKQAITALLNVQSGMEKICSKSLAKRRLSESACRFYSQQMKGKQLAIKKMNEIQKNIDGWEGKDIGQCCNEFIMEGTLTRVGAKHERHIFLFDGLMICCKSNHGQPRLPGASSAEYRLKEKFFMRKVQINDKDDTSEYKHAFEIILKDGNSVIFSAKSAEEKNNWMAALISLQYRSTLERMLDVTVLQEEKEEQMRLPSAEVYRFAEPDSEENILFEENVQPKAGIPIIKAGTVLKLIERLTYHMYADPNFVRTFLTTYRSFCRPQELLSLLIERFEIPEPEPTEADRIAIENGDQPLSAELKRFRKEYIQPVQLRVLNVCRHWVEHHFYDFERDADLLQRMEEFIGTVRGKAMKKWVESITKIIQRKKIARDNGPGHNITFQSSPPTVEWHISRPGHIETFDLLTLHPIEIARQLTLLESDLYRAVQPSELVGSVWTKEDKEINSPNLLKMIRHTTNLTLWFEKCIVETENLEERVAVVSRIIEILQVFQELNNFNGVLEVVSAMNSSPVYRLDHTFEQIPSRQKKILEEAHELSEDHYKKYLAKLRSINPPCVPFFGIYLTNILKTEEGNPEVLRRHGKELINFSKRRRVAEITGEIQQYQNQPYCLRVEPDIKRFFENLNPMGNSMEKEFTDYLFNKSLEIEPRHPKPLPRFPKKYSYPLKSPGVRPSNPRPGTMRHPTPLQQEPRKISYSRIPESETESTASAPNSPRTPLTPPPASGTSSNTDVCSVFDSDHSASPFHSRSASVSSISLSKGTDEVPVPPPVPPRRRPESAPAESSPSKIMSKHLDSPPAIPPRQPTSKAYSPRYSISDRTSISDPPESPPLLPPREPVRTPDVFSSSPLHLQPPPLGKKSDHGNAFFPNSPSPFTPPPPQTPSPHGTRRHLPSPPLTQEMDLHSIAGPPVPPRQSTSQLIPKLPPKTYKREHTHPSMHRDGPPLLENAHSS

[3] = molecular target: T2, Son of sevenless homolog 1 (Mus musculus); experiment: Inhibition of SOS1 in overnight serum-starved and H-RasG12V transduced mouse MEF assessed as reduction in Akt phosphorylation at 10 to 40 uM pre-incubated for 2 hrs before EGF stimulation for 5 mins by Western blot analysis; format: cell-based
[4] = molecular target: T3, Son of sevenless homolog 1 (Homo sapiens, UniProt Q07889); experiment: Allosteric binding affinity to N-terminal 6x-His-tagged recombinant human SOS1 catalytic domain (residues 564 to 1049 residues) expressed in Escherichia coli BL21 (DE3) by label-free microscale thermophoresis analysis
T3 sequence (Q07889 whole entry): T1 sequence (whole entry)

[5] = molecular target: T1, Son of sevenless homolog 1 (Homo sapiens); experiment: Inhibition of SOS1 in overnight serum-starved human BxPC3 cells assessed as reduction in AKT phosphorylation at 40 to 60 uM incubated for 2 hrs by Western blotting analysis

inhibition [1]: Active
SMILES: O=C(O)c1ccccc1-c1c2ccc3cc(O)ccc3c2oc2c1ccc1cc(=O)ccc12

inhibition [2]: Active
SMILES: O=C(O)c1cc2c3c(c1)C1C=CCC1C(c1ccccc1Cl)N3CC1CC=CC21 (stereo not given)

inhibition [3]: Active
SMILES: O=C1Oc2ccccc2C(=O)/C1=C/N1C(=O)/C(=C/c2ccc([N+](=O)[O-])cc2)SC1=S

Kd [4]: 14.2 µM
inhibition [5]: Active
SMILES: O=[N+]([O-])c1ccccc1/C=C/C=C1c2ccccc2-c2ccccc21
